Measured values as given in patent US12377104B1, “Methods for treating a fatty liver disease” (Madrigal Pharmaceuticals, Inc., priority 2024, dated 2025).

Key:
[1] = MAESTRO-NASH: metabolic factors (heart rate, body weight, blood pressure) at week 52; assay type: in vivo, human; conditions: for Body weight, LS mean % CFB / Body weight, LS mean % CFB difference from PBO / DBP, LS mean % CFB / DBP, LS mean % CFB difference from PBO / Glucose, LS mean % CFB / Glucose, LS mean % CFB difference from PBO / HOMA-IR, LS mean % CFB / HOMA-IR, LS mean % CFB difference from PBO / HbA1c, LS mean % CFB / HbA1c, LS mean % CFB difference from PBO / Heart rate (electrocardiogram), LS mean % CFB / Heart rate (electrocardiogram), LS mean % CFB difference from PBO / Insulin, LS mean % CFB / Insulin, LS mean % CFB difference from PBO / SBP, LS mean % CFB / SBP, LS mean % CFB difference from PBO: week 52
[2] = MAESTRO-NASH: bone mineral density T score and fractures; design: species or system human; conditions: in vivo
[3] = tested on: adults with biopsy-confirmed NASH and fibrosis stage F1B, F2, or F3; assay: MAESTRO-NASH phase 3: liver biopsy end points at week 52; assay type: in vivo, human
Procedure: A phase 3 trial was conducted involving adults with biopsy-confirmed NASH and a fibrosis stage of F1B, F2, or F3 (stages range from F0 [no fibrosis] to F4 [cirrhosis]).
Randomization was performed with the use of an interactive Webresponse system. Patients were stratified according to status with respect to type 2 diabetes (presence or absence) and fibrosis stage (F1, F2, or F3). Throughout the trial, patients received nutrition and exercise counseling according to current recommendations. Patients were unaware of the trial-group assignments, as were site personnel, personnel of contract research organizations, and sponsor personnel who were conducting the trial, administering the investigational product, and performing clinical assessments. Selected persons were aware of the trial-group assignments to facilitate dispensation of resmetirom or placebo. All trial personnel were unaware of the results of postbaseline tests that could reveal the trial-group assignments, including levels of total and free thyroxine (T4), sex hormone-binding globulin, and lipids as well as magnetic resonance imaging proton density fat fraction (MRI-PDFF).
Screening biopsy results were used as baseline values for histologic variables, and a second biopsy was performed at week 52. Biopsy specimens on glass slides were assessed centrally by two independent expert pathologists (the second and third authors) to determine the NAFLD activity score and fibrosis stage (according to NASH Clinical Research Network criteria). For the primary analysis, all screening or baseline biopsy specimens and week 52 biopsy specimens on glass slides were reread independently by both pathologists in large unpaired groups of screening or baseline biopsy specimens (50 to 100 slides per group, spiked with biopsy specimens obtained from patients who had screening failure) or a separate matched set of week 52 biopsy specimens (50 to 100 slides per group). The pathologists were unaware of the trial-group assignments, patient characteristics, and each other's assessments. A consensus review was conducted as a supportive analysis wherein the two pathologists read blinded (to time of biopsy and identification code) digitized images for cases in which there was disagreement on the primary read with respect to response status for the two primary end points or a reduction in fibrosis by at least two stages. Only the NAFLD activity scores or fibrosis components that determined the response for which there was disagreement between the pathologists were reread. Details are provided in the Supplementary Appendix.
The primary statistical analysis model used the Cochran-Mantel-Haenszel test to determine response with respect to the biopsy end points.

NASH liver fibrosis = assay: MAESTRO-NASH: qFibrosis assessment of biopsies; assay type: in vivo, human; conditions: Week 52 biopsy, compared with placebo
Source text: Fibrosis stage predicts clinical outcomes in NASH/metabolic-associated steatohepatitis (MASH), with liver biopsies as the regulatory standard. Ordinal fibrosis staging on stained slides may limit the ability to visualize dynamic fibrosis features throughout the liver lobule. qFibrosis, an AI-driven fibrosis assessment methodology that utilizes laser driven (SHG) collagen detection on unstained biopsy slides, has identified 30 specific fibrotic features on NASH liver biopsies that may be predictive of liver-related clinical outcomes, progression to cirrhosis and decompensated cirrhosis based on the SteatoSITE population. Non-invasive measures such as baseline MRE or FibroScan VCTE, ELF, and other non-invasive fibrosis markers also predict progression to cirrhosis and decompensated cirrhosis. SteatoSITE contains integrated clinical and pathological data from 940 cases across the NAFLD spectrum with outcome data from electronic health record and pathologist-assigned fibrosis stage and RNA on baseline biopsy. […] Baseline and Week 52 biopsies from MAESTRO-NASH were analyzed for 30 qFibrosis features identified by SteatoSITE that are associated with progression of NASH fibrosis to liver decompensation, and six features with the strongest correlations between baseline pathologist scoring and non-invasive tests were identified.

CC(C)c1cc(Oc2c(Cl)cc(-n3nc(C#N)c(=O)[nH]c3=O)cc2Cl)n[nH]c1=O [Resmetirom, 2-(3,5-dichloro-4-((5-isopropyl-6-oxo-1,6-dihydropyridazin-3-yl)oxy)phenyl)-3,5-dioxo-2,3,4,5-tetrahydro-1,2,4-triazine-6-carbonitrile]
Body weight, LS mean % CFB ([1]; 80 mg): −1.2%
Body weight, LS mean % CFB difference from PBO ([1]; 80 mg): 0.35%
DBP, LS mean % CFB ([1]; 80 mg): −1.6%
DBP, LS mean % CFB difference from PBO ([1]; 80 mg): −1.5%
Glucose, LS mean % CFB ([1]; 80 mg): 0.72%
Glucose, LS mean % CFB difference from PBO ([1]; 80 mg): 2.9%
HOMA-IR, LS mean % CFB ([1]; 80 mg): 9.1%
HOMA-IR, LS mean % CFB difference from PBO ([1]; 80 mg): −5.3%
HbA1c, LS mean % CFB ([1]; 80 mg): 1.7%
HbA1c, LS mean % CFB difference from PBO ([1]; 80 mg): 0.19%
Heart rate (electrocardiogram), LS mean % CFB ([1]; 80 mg): −1.7%
Heart rate (electrocardiogram), LS mean % CFB difference from PBO ([1]; 80 mg): −1.5%
Insulin, LS mean % CFB ([1]; 80 mg): 2.8%
Insulin, LS mean % CFB difference from PBO ([1]; 80 mg): 2.3%
SBP, LS mean % CFB ([1]; 80 mg): −1.9%
SBP, LS mean % CFB difference from PBO ([1]; 80 mg): 2.7%
Body weight, LS mean % CFB ([1]; 100 mg): −1.8%
Body weight, LS mean % CFB difference from PBO ([1]; 100 mg): −0.88%
DBP, LS mean % CFB ([1]; 100 mg): −2.0%
DBP, LS mean % CFB difference from PBO ([1]; 100 mg): −1.9%
Glucose, LS mean % CFB ([1]; 100 mg): −3.4%
Glucose, LS mean % CFB difference from PBO ([1]; 100 mg): 5.6%
HOMA-IR, LS mean % CFB ([1]; 100 mg): 3.4%
HOMA-IR, LS mean % CFB difference from PBO ([1]; 100 mg): 11.0%
HbA1c, LS mean % CFB ([1]; 100 mg): 1.5%
HbA1c, LS mean % CFB difference from PBO ([1]; 100 mg): 0.05%
Heart rate (electrocardiogram), LS mean % CFB ([1]; 100 mg): 2.6%
Heart rate (electrocardiogram), LS mean % CFB difference from PBO ([1]; 100 mg): −2.4%
Insulin, LS mean % CFB ([1]; 100 mg): 3.3%
Insulin, LS mean % CFB difference from PBO ([1]; 100 mg): 1.8%
SBP, LS mean % CFB ([1]; 100 mg): 2.1%
SBP, LS mean % CFB difference from PBO ([1]; 100 mg): 2.9%
blood pressure ([1]; in vivo): slightly reduced
effect on heart rate or body weight ([1]; in vivo): no effect on heart rate or body weight
fractures and bone mineral density T scores [2]: no increases in fractures or substantial changes in bone mineral density T scores
Both NASH resolution and fibrosis improvement by ≥1 stage, difference from placebo ([3]; 80 mg): 9.5 percentage points
Both NASH resolution and fibrosis improvement by ≥1 stage, percent with response ([3]; 80 mg): 14.2%
Fibrosis improvement by ≥1 stage with no worsening of NAFLD activity score, difference from placebo ([3]; 80 mg): 10.2 percentage points
Fibrosis improvement by ≥1 stage with no worsening of NAFLD activity score, percent with response ([3]; 80 mg): 24.2%
Improvement in each component of NAFLD activity score, difference from placebo ([3]; 80 mg): 16.1 percentage points
Improvement in each component of NAFLD activity score, percent with response ([3]; 80 mg): 23.3%
Improvement in fibrosis by ≥2 stages, difference from placebo ([3]; 80 mg): 5.6 percentage points
Improvement in fibrosis by ≥2 stages, percent with response ([3]; 80 mg): 8.3%
NASH resolution with no worsening of fibrosis, difference from placebo ([3]; 80 mg): 16.4 percentage points
NASH resolution with no worsening of fibrosis, percent with response ([3]; 80 mg): 25.9%
≥2-Point improvement in NAFLD activity score with improvement in fibrosis, difference from placebo ([3]; 80 mg): 10.5 percentage points
≥2-Point improvement in NAFLD activity score with improvement in fibrosis, percent with response ([3]; 80 mg): 18.8%
≥2-Point improvement in NAFLD activity score with no worsening of fibrosis, difference from placebo ([3]; 80 mg): 20.2 percentage points
≥2-Point improvement in NAFLD activity score with no worsening of fibrosis, percent with response ([3]; 80 mg): 41.3%
Both NASH resolution and fibrosis improvement by ≥1 stage, difference from placebo ([3]; 100 mg): 11.6 percentage points
Both NASH resolution and fibrosis improvement by ≥1 stage, percent with response ([3]; 100 mg): 16.0%
Fibrosis improvement by ≥1 stage with no worsening of NAFLD activity score, difference from placebo ([3]; 100 mg): 11.8 percentage points
Fibrosis improvement by ≥1 stage with no worsening of NAFLD activity score, percent with response ([3]; 100 mg): 25.9%
Improvement in each component of NAFLD activity score, difference from placebo ([3]; 100 mg): 20.9 percentage points
Improvement in each component of NAFLD activity score, percent with response ([3]; 100 mg): 27.9%
Improvement in fibrosis by ≥2 stages, difference from placebo ([3]; 100 mg): 7.4 percentage points
Improvement in fibrosis by ≥2 stages, percent with response ([3]; 100 mg): 10.1%
NASH resolution with no worsening of fibrosis, difference from placebo ([3]; 100 mg): 20.7 percentage points
NASH resolution with no worsening of fibrosis, percent with response ([3]; 100 mg): 29.9%
≥2-Point improvement in NAFLD activity score with improvement in fibrosis, difference from placebo ([3]; 100 mg): 13.0 percentage points
≥2-Point improvement in NAFLD activity score with improvement in fibrosis, percent with response ([3]; 100 mg): 21.2%
≥2-Point improvement in NAFLD activity score with no worsening of fibrosis, difference from placebo ([3]; 100 mg): 23.8 percentage points
≥2-Point improvement in NAFLD activity score with no worsening of fibrosis, percent with response ([3]; 100 mg): 44.9%
total qFibrosis scores (NASH liver fibrosis): highly significant improvement in fibrosis
